From patent US11434242B2, “Dopamine-b-hydroxylase inhibitors” (BIAL-PORTELA & Cª, S.A., priority 2017, dated 2022)

Biological target: T1, Dopamine beta hydroxylase (Homo sapiens, UniProt P09172)
T1 construct: 125 μl of plasma; tissue Instituto Português do Sangue Transplantação; host or cells: human plasma from healthy donors
T1 sequence (P09172 40-617 limits assumed): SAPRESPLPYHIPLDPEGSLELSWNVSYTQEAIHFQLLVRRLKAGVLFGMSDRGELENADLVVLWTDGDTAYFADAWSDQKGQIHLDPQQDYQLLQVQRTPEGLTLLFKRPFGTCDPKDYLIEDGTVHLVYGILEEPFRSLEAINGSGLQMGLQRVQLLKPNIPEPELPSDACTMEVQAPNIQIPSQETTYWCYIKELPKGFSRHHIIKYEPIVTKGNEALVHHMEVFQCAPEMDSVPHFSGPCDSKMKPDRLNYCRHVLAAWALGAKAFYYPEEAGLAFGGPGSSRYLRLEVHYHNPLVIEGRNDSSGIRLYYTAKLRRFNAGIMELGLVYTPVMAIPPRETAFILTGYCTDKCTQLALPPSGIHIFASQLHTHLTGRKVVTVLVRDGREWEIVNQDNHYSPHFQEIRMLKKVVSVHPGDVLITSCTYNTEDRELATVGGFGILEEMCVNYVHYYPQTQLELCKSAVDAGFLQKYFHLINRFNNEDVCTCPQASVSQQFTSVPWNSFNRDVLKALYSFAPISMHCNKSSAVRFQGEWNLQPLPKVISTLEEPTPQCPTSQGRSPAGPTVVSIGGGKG
Test: Dopamine beta hydroxylase activity in human plasma
Assay type: biochemical
Conditions: for Plasma (0.01 μM), activity in % of control: inhibitor 0.01 μM; for Plasma (0.1 μM), activity in % of control: inhibitor 0.1 μM
Outline: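 Octopamine production from tyramine over 45 min at 37° C, measured photometrically at 330 nm after SCX extraction and periodate oxidation against an octopamine standard curve, indicates plasma DβH activity. Compounds tested at final 10, 100 and 1000 nM in human plasma, pH 5.0 cofactor buffer, 10 min preincubation; results as % of control.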

Plasma (0.01 μM), activity in % of control | Plasma (0.1 μM), activity in % of control | SMILES
55.9 % of control | 11.2 % of control | Cn1c(CC(=O)N[C@@H]2CCOC2)c2n(c1=S)C[C@@]1(c3c(F)ccc(Cl)c3F)C[C@@H]21 [Example 274, 2-((5aS,6aR)-5a-(3-chloro-2,6-difluorophenyl)-2-methyl-3-thioxo-2,3,5,5a,6,6a-hexahydrocyclopropa[3,4]pyrrolo[1,2-c]imidazol-1-yl)-N—((R)-tetrahydrofuran-3-yl)acetamide]
79.0 % of control | 24.4 % of control | Cn1c(CC(=O)O)c2n(c1=S)C[C@@]1(c3cc(Br)ccc3F)C[C@@H]21 [Example 275, 2-((5aS,6aR)-5a-(5-bromo-2-fluorophenyl)-2-methyl-3-thioxo-2,3,5,5a,6,6a-hexahydrocyclopropa[3,4]pyrrolo[1,2-c]imidazol-1-yl)acetic acid]
83.3 % of control | 33.3 % of control | Cn1c(CC(=O)O)c2n(c1=S)C[C@@]1(c3cc(Cl)ccc3F)C[C@@H]21 [Example 276, 2-((5aS,6aR)-5a-(5-chloro-2-fluorophenyl)-2-methyl-3-thioxo-2,3,5,5a,6,6a-hexahydrocyclopropa[3,4]pyrrolo[1,2-c]imidazol-1-yl)acetic Acid]
35.4 % of control | 3.4 % of control | Cn1c(CC(=O)N[C@@H]2CCCOC2)c2n(c1=S)C[C@@]1(c3cc(Br)ccc3F)C[C@@H]21 [Example 277, 2-((5aS,6aR)-5a-(5-bromo-2-fluorophenyl)-2-methyl-3-thioxo-2,3,5,5a,6,6a-hexahydrocyclopropa[3,4]pyrrolo[1,2-c]imidazol-1-yl)-N—((R)-tetrahydro-2H-pyran-3-yl)acetamide]
84.2 % of control | 62.0 % of control | Cn1c(CC(=O)N[C@@H]2CCCOC2)c2n(c1=S)C[C@@H](c1c(F)c(F)cc(F)c1F)C2 [Example 278, 2-((R)-2-methyl-6-(2,3,5,6-tetrafluorophenyl)-3-thioxo-2,5,6,7-tetrahydro-3H-pyrrolo[1,2-c]imidazol-1-yl)-N—((R)-tetrahydro-2H-pyran-3-yl)acetamide]
61.7 % of control | 15.7 % of control | Cn1c(CC(=O)N[C@@H]2CCOC2)c2n(c1=S)C[C@@]1(c3cc(Br)ccc3F)C[C@@H]21 [Example 279, 2-((5aS,6aR)-5a-(5-bromo-2-fluorophenyl)-2-methyl-3-thioxo-2,3,5,5a,6,6a-hexahydrocyclopropa[3,4]pyrrolo[1,2-c]imidazol-1-yl)-N—((R)-tetrahydrofuran-3-yl)acetamide]
92.8 % of control | 51.4 % of control | Cn1c(CC(N)=O)c2n(c1=S)C[C@@]1(c3cc(Br)ccc3F)C[C@@H]21 [Example 280, 2-((5aS,6aR)-5a-(5-bromo-2-fluorophenyl)-2-methyl-3-thioxo-2,3,5,5a,6,6a-hexahydrocyclopropa[3,4]pyrrolo[1,2-c]imidazol-1-yl)acetamide]
107.9 % of control | 29.8 % of control | Cn1c(CC(=O)N[C@@H]2CCOC2)c2n(c1=S)C[C@@]1(c3cc(Cl)ccc3F)C[C@@H]21 [Example 281, 2-((5aS,6aR)-5a-(5-chloro-2-fluorophenyl)-2-methyl-3-thioxo-2,3,5,5a,6,6a-hexahydrocyclopropa[3,4]pyrrolo[1,2-c]imidazol-1-yl)-N—((R)-tetrahydrofuran-3-yl)acetamide]
99.6 % of control | 75.4 % of control | Cn1c(CC(N)=O)c2n(c1=S)C[C@@]1(c3cc(Cl)ccc3F)C[C@@H]21 [Example 282, 2-((5aS,6aR)-5a-(5-chloro-2-fluorophenyl)-2-methyl-3-thioxo-2,3,5,5a,6,6a-hexahydrocyclopropa[3,4]pyrrolo[1,2-c]imidazol-1-yl)acetamide]
